Laboratory results reported in US20060035295A1, “Method for determination of thymidine kinase 1 activity and the use thereof” (priority 2002, published 2006).
“Also recorded” adds a separate entry of the source.

Columns and labels:
[1] = system: chicken anti-AZTMP antibodies; test: Competitive assay for anti-AZTMP antibody specificity (AZXMP hapten coated plates); format: binding; details: increasing amounts of competitor added to anti-AZTMP antibody solution; FIG. 2
Experimental: FIG. 2 Anti-AZTMP antibody specificity. Dose response curve for the competitive assay, according to example 1, between free AZTMP (left curve, denoted AZTMP) or AZT (right curve, denoted AZT) and Immobilised hapten, AZXMP (see FIG. 1) illustrating the specificity of chicken anti-AZTMP antibodies. Y-axis: original absorbance values (B) are normalised against values obtained in the absence of competitor (B0) to obtain (B/B0).
Antibody specificity and titre were evaluated using the competitive assay format described in example 4. To evaluate non-specific binding the antibody was substituted with diluent. Antibody specificity and titre was also evaluated using an assay whereby AZXMP hapten was coated to plates. AZXMP was conjugated to BSA using GA as linker and subsequently coated to the microtiter plates. In this assay, 100 μl of serially diluted antibody solutions were first incubated with AZXMP coated wells for 1 h at RT.
Wells of microtiter plates were washed three times with PBST (PBS plus 0,05% Tween 20). 100 μL of secondary antibody (diluted Horse Radish Peroxidase (HRP)-labelled anti-Goat IgG solution or anti-IgY antibody) was added and incubated for 30 min at room temperature. After 3 times washing with 250 μl PBST, bound antibody complexes were detected using TMB as substrate. The induced colour reaction was stopped after 5 min using 1M H2SO4 and detected at 450 nm. […]

serum TK = test: Serum TK measurement with tritium labelled AZT; format: biochemical, human; details: 16 clinical patient serum samples, 4 h at 37° C.
Experimental: In order to determine if serum TK can use AZT as substrate, an experiment was performed with 16 clinical patient serum samples (20 μl) mixed with 2 μL ^3H-AZT (Ci/mmol Moraveck Inc, USA) and 20 μL reaction mixture containing 10 mM Tris-HCl (pH 7.6), 5 mM ATP, 5 mM MgCl2, 3.5 mM NaF, 2 mM DTT. The assay was performed 4 h at 37° C. and the amount of AZTMP formed was determined by DE 51 ion exchange paper method as described (9). Previous experiments had established that this amount of serum gave a linear reaction during the time period tested.

TK1 = target: T1, TK1 (Homo sapiens, UniProt P04183); details: almost the same relative efficiency as Thymidine; cited from earlier work
T1 sequence (P04183 1-234): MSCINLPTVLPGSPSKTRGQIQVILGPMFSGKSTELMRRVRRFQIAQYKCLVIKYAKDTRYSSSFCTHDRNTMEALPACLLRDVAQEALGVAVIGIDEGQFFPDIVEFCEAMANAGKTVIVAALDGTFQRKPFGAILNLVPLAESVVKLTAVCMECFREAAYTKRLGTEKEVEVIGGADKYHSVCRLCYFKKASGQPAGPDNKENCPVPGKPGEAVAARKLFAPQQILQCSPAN

TK2 = target: T2, TK2 (Homo sapiens, UniProt O00142); details: cited from earlier work
T2 sequence (O00142 34-265): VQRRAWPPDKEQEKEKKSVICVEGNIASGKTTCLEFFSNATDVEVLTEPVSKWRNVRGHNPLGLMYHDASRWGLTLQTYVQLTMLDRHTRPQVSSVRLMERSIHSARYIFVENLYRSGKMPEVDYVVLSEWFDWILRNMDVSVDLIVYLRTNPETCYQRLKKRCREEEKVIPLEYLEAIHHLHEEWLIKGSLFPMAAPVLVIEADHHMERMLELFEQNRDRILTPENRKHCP

thymidine phosphatase = target: T3, thymidine phosphatase (Homo sapiens, UniProt P19971); details: in blood serum or in cell extracts; cited from earlier work
T3 sequence (P19971 11-482): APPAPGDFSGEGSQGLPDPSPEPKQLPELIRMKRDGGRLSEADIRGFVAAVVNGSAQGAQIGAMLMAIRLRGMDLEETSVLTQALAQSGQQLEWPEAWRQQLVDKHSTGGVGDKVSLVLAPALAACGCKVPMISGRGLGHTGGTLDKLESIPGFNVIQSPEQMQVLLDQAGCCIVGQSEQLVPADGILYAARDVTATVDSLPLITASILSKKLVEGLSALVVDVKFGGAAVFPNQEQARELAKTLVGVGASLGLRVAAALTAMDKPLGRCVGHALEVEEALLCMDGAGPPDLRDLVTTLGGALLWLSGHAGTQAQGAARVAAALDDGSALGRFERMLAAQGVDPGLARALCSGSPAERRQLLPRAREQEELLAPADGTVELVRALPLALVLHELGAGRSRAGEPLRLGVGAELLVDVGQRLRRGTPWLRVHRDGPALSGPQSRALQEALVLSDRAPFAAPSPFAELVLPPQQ

[2] = blood serum or cell extracts; cited from earlier work
phosphatases = test: TK ELISA with UMP in substrate buffer to inhibit phosphatase activity; format: biochemical, human; details: 1 mM UMP; two of four tested sera
Experimental: A potential problem for the analysis of a kinase activity in patient sera is the presence of phosphatase activity in the same sera to drive the reverse reaction (dephosphorylaUon). One way to inhibit the phosphatase is to include UMP in the substrate buffer to protect AZTMP from being dephosphorylated to AZT.
Substrate buffers containing 172 mM HEPES, 62 mM NaOH, 62 mM MgCl2*6H2O, 34 mM KCl, 142 mM Mannitol, 7,8 mM ATP, 12 mM DTE, and 25 μg/ml AZT were prepared—with variable concentrations UMP, i.e. 0, 0.1, 1 or 5 mM UMP.
A TK1 standard preparation 80 U/L (in heat inactivated fetal calf serum) was diluted in 9 g/L deionized-water, also used as zero standard level, to give further standard levels of 40, 20, 10, 5 and 2,5 U/L, respectively. Four human sera were also assayed. Two sera were from healthy blood donors and two sera from patients monitored with TK REA.
Next the TK reactions were performed by adding 50 μl of substrate buffer together with 50 μL of TK1 standard/or patient serum sample in non-coated microtitre wells.
The plate was incubated for 60 minutes at 37° C. […]
For the detection 50 μl were transferred to a plate which plate was coated with 1 μg/well rabbit anti chicken IgY (Sigma, MO, USA). […] The TMB reaction was stopped with 100 μl acid TMB stop and the absorbance read at 450 nm.

Compound	competition with immobilised AZXMP for antibody binding [1]	use as substrate by serum TK (serum TK)	substrate quality for TK1 (TK1)	phosphorylation by TK2 (TK2)	substrate for thymidine phosphatase (thymidine phosphatase)	metabolic stability [2]	effect on TK values of tested sera (phosphatases)
Cc1cn([C@H]2C[C@H](N=[N+]=[N-])[C@@H](CO)O2)c(=O)[nH]c1=O [AZT, 3′-azido-3′-deoxythymidine]	not able to compete out AZXMP	can efficiently use AZT as substrate; also recorded: selective, efficient and stable substrates	good substrate for TK1	low capacity to phosphorylate AZT	does not use AZT as a substrate	stable metabolites	–
Cc1cn([C@H]2C[C@H](N=[N+]=[N-])[C@@H](COP(=O)(O)O)O2)c(=O)[nH]c1=O [AZTMP, AZT-5′-monophosphate]	–	–	–	–	–	stable metabolites	–
O=c1ccn([C@@H]2O[C@H](COP(=O)(O)O)[C@@H](O)[C@H]2O)c(=O)[nH]1 [UMP, Uridine monophosphate]	–	–	–	–	–	–	significantly higher TK values
